# Source: patent EP0699074B1, “THROMBIN INHIBITORS” (Merck & Co., Inc., priority 1993, dated 1994)
# Molecular target: human α-thrombin (Homo sapiens, UniProt P00734)
# Details: 4-4 (L at Acg center, later eluting HPLC peak) compared with its diastereomer 4-3 (D)
# Experimental: Trypsin assays also contained 1 mM CaCl2.
# Concentrations of stock solutions of Z-GPR-afc were determined from measurements of absorbance at 380 nm of the 7-amino-4-trifluoromethyl coumarin produced upon complete hydrolysis of an aliquot of the stock solution by thrombin.
# Times required to achieve equilibration between enzyme and inhibitor were determined in control experiments. Initial velocities of product formation in the absence (Vo) or presence of inhibitor (Vi) were measured.
structure (smiles),measurement,value
"CNC(=O)C(=O)[C@@H](NC(=O)[C@@H]1CCCN1C(=O)[C@@H](Cc1ccccc1)NC)[C@H]1CC[C@H](N)CC1 [4-4, H-NMe-D-Phe-Pro-t-L-AcgΨ[COCO]-NHMe]",thrombin inhibitor potency (comparison of the two isomers),more potent thrombin inhibitor
